Assay results published in PMC8615521, “Mitochondria-Mediated Apoptosis of HCC Cells Triggered by Knockdown of Glutamate Dehydrogenase 1: Perspective for Its Inhibition through Quercetin and Permethylated Anigopreissin A” (Biomedicines, 2021).

Legend:
[1] = biological target: T1, GDH1 from bovine liver (glutamate dehydrogenase 1) (Bos taurus, UniProt P00366); test: spectrophotometric NADH oxidation assay ([…] nm), reference inhibitor measured by the authors; assay type: biochemical
T1 construct: gene GLUD1; purified bovine liver GDH (Sigma Aldrich, Type II)
T1 sequence (P00366 58-558): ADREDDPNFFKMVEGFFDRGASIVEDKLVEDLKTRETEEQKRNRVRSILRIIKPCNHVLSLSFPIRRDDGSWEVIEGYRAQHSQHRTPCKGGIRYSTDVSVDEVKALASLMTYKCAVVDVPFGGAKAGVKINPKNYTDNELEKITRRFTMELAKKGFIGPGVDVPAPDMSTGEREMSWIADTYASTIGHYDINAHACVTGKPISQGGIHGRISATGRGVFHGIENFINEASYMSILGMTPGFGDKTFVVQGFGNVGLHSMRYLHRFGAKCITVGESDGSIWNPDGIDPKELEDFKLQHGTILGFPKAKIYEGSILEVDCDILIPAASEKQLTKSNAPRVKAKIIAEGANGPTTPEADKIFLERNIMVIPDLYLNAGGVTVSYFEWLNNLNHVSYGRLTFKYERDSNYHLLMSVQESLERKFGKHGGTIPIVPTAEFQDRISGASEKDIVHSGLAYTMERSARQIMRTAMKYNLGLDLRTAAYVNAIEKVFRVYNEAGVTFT

[2] = biological target: T2, hGDH1 (human glutamate dehydrogenase 1) (Homo sapiens, UniProt P00367); test: GDH activity in HepG2 cell extract (NADH, […] nm); assay type: cell-based; conditions: HepG2, read-out: % inhibition at 8 μM %
T2 construct: gene GLUD1; GDH activity in HepG2 cellular extract
T2 sequence (P00367 54-558): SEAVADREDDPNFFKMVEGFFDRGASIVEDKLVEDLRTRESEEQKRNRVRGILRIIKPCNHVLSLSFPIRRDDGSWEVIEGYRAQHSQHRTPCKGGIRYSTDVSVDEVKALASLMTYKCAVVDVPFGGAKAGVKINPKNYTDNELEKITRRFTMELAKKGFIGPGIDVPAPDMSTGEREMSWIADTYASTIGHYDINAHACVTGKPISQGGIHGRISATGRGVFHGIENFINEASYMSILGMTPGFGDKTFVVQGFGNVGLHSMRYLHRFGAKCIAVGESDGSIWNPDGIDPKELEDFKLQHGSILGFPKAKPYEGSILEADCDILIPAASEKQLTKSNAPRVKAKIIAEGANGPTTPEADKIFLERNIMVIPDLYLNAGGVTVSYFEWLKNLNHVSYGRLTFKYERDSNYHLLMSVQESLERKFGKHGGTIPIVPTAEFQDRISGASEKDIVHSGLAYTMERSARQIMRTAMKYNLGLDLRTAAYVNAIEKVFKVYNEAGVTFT

[3] = biological target: T1, GDH1 from bovine liver (glutamate dehydrogenase 1); test: spectrophotometric NADH oxidation assay ([…] nm), Lineweaver-Burk and secondary plots; assay type: biochemical

Molecule | IC50 [1] [µM] | inhibition at 8 µM [2] [%] | Ki [3] [µM]
O=C(O[C@@H]1Cc2c(O)cc(O)cc2O[C@@H]1c1cc(O)c(O)c(O)c1)c1cc(O)c(O)c(O)c1 [EGCG, Epigallocatechin gallate] | ~2 | – | –
O=c1c(O)c(-c2ccc(O)c(O)c2)oc2cc(O)cc(O)c12 [quercetin] | – | ~56 | 9.2
Permethylated Anigopreissin A [PAA] | – | – | 10
